Laboratory results: US8758816B2, “Compositions comprising azelastine and methods of use thereof” (priority 2004, dated 2014)
Counter-ions that a name gives are not always drawn.

System: patients with seasonal allergic rhinitis (SAR)
Assay: MP 428 study: individual symptom severity scores (runny nose, itchy nose, sneezing, congestion; 0-3 scale)
Type: in vivo, human
Conditions: Intent-to-Treat Population
Protocol: A two-week, randomized, double-blind study, which evaluated the effects of the co-administration of ASTELIN® (azelastine hydrochloride (HCl)) and FLONASE® (fluticasone propionate) compared to either product alone in patients with seasonal allergic rhinitis (SAR) was conducted during the 2006 Texas mountain cedar season. After a 5-day placebo lead-in period, 151 patients with moderate-to-severe allergic rhinitis symptoms were randomized to either: (1) (49 total patients) ASTELIN® (azelastine hydrochloride (HCl)) plus placebo saline nasal spray 2 sprays per nostril, 15 minutes apart, twice daily (AM & PM); (2) (50 total patients) FLONASE® (fluticasone propionate) plus placebo saline nasal spray, 2 sprays per nostril, 15 minutes apart, once daily (AM) and two sessions of placebo saline nasal spray, 2 sprays per nostril, 15 minutes apart (PM); or (3) (52 total patients) the co-administration of ASTELIN® (azelastine hydrochloride (HCl)) 2 sprays per nostril plus FLONASE® (fluticasone propionate) 2 sprays per nostril (AM), 15 minutes apart, and ASTELIN® (azelastine hydrochloride (HCl)) 2 sprays per nostril plus placebo saline nasal spray, 15 minutes apart, (PM) for a 2-week double-blind treatment period.
The primary efficacy variable was the change from baseline in the Total Nasal Symptom Score (TNSS), which comprised sneezing, itchy nose, runny nose, and nasal congestion (individual symptoms scores were assigned a value between 0 and 3, where 0=no symptoms and 3=severe symptoms). This study was not statistically designed to assess the differences between ASTELIN® and FLONASE®.
The results of the clinical trial are summarized and presented in Appendix A hereinbelow and in FIGS. 1-6. […] FIGS. 2-5 show the mean improvement in severity score (0-3 scale) from baseline for the symptoms of runny nose, itchy nose, sneezing and congestion, respectively.

SMILES: CN1CCCC(n2nc(Cc3ccc(Cl)cc3)c3ccccc3c2=O)CC1 (racemic) [Azelastine, (±)-1-(2H)-phthalazinone, 4-[(4-chlorophenyl)methyl]-2-(hexahydro-1-methyl-1H-azepin-4-yl)-, mono-hydrochloride]
- Percent Change from Baseline in AM and PM Combined Nasal Symptom Score: Congestion, LS Mean (Day 12): −21.71%
- Percent Change from Baseline in AM and PM Combined Nasal Symptom Score: Congestion, Mean (Day 12): −22.63%
- Percent Change from Baseline in AM and PM Combined Nasal Symptom Score: Congestion, Median (Day 12): −16.67%
- Percent Change from Baseline in AM and PM Combined Nasal Symptom Score: Itchy Nose, LS Mean (Day 12): −29.11%
- Percent Change from Baseline in AM and PM Combined Nasal Symptom Score: Itchy Nose, Mean (Day 12): −28.74%
- Percent Change from Baseline in AM and PM Combined Nasal Symptom Score: Itchy Nose, Median (Day 12): −16.67%
- Percent Change from Baseline in AM and PM Combined Nasal Symptom Score: Runny Nose, LS Mean (Day 12): −22.75%
- Percent Change from Baseline in AM and PM Combined Nasal Symptom Score: Runny Nose, Mean (Day 12): −23.43%
- Percent Change from Baseline in AM and PM Combined Nasal Symptom Score: Runny Nose, Median (Day 12): −8.40%
- Percent Change from Baseline in AM and PM Combined Nasal Symptom Score: Sneezing, LS Mean (Day 12): −34.92%
- Percent Change from Baseline in AM and PM Combined Nasal Symptom Score: Sneezing, Mean (Day 12): −34.06%
- Percent Change from Baseline in AM and PM Combined Nasal Symptom Score: Sneezing, Median (Day 12): −33.33%
- Change from Baseline in AM and PM Combined Nasal Symptom Score: Congestion, LS Mean (Day 13): −1.25
- Change from Baseline in AM and PM Combined Nasal Symptom Score: Congestion, Mean (Day 13): −1.29
- Change from Baseline in AM and PM Combined Nasal Symptom Score: Congestion, Median (Day 13): −1.00
- Change from Baseline in AM and PM Combined Nasal Symptom Score: Itchy Nose, LS Mean (Day 13): −1.44
- Change from Baseline in AM and PM Combined Nasal Symptom Score: Itchy Nose, Mean (Day 13): −1.43
- Change from Baseline in AM and PM Combined Nasal Symptom Score: Itchy Nose, Median (Day 13): −1.15
- Change from Baseline in AM and PM Combined Nasal Symptom Score: Runny Nose, LS Mean (Day 13): −1.36
- Change from Baseline in AM and PM Combined Nasal Symptom Score: Runny Nose, Mean (Day 13): −1.38
- Change from Baseline in AM and PM Combined Nasal Symptom Score: Runny Nose, Median (Day 13): −1.07
- Change from Baseline in AM and PM Combined Nasal Symptom Score: Sneezing, LS Mean (Day 13): −1.60
- Change from Baseline in AM and PM Combined Nasal Symptom Score: Sneezing, Mean (Day 13): −1.60
- Change from Baseline in AM and PM Combined Nasal Symptom Score: Sneezing, Median (Day 13): −1.75
- Percent Change from Baseline in AM and PM Combined Nasal Symptom Score: Congestion, LS Mean (Day 13): −22.44%
- Percent Change from Baseline in AM and PM Combined Nasal Symptom Score: Congestion, Mean (Day 13): −23.01%
- Percent Change from Baseline in AM and PM Combined Nasal Symptom Score: Congestion, Median (Day 13): −18.64%
- Percent Change from Baseline in AM and PM Combined Nasal Symptom Score: Itchy Nose, LS Mean (Day 13): −32.25%
- Percent Change from Baseline in AM and PM Combined Nasal Symptom Score: Itchy Nose, Mean (Day 13): −31.63%
- Percent Change from Baseline in AM and PM Combined Nasal Symptom Score: Itchy Nose, Median (Day 13): −22.33%
- Percent Change from Baseline in AM and PM Combined Nasal Symptom Score: Runny Nose, LS Mean (Day 13): −27.36%
- Percent Change from Baseline in AM and PM Combined Nasal Symptom Score: Runny Nose, Mean (Day 13): −27.57%
- Percent Change from Baseline in AM and PM Combined Nasal Symptom Score: Runny Nose, Median (Day 13): −24.05%
- Percent Change from Baseline in AM and PM Combined Nasal Symptom Score: Sneezing, LS Mean (Day 13): −35.90%
- Percent Change from Baseline in AM and PM Combined Nasal Symptom Score: Sneezing, Mean (Day 13): −35.28%
- Percent Change from Baseline in AM and PM Combined Nasal Symptom Score: Sneezing, Median (Day 13): −30.43%
- Change from Baseline in AM and PM Combined Nasal Symptom Score: Congestion, LS Mean (Day 14): −1.33
- Change from Baseline in AM and PM Combined Nasal Symptom Score: Congestion, Mean (Day 14): −1.39
- Change from Baseline in AM and PM Combined Nasal Symptom Score: Congestion, Median (Day 14): −1.05
- Change from Baseline in AM and PM Combined Nasal Symptom Score: Itchy Nose, LS Mean (Day 14): −1.39
- Change from Baseline in AM and PM Combined Nasal Symptom Score: Itchy Nose, Mean (Day 14): −1.39
- Change from Baseline in AM and PM Combined Nasal Symptom Score: Itchy Nose, Median (Day 14): −1.15
- Change from Baseline in AM and PM Combined Nasal Symptom Score: Runny Nose, LS Mean (Day 14): −1.32
- Change from Baseline in AM and PM Combined Nasal Symptom Score: Runny Nose, Mean (Day 14): −1.34
- Change from Baseline in AM and PM Combined Nasal Symptom Score: Runny Nose, Median (Day 14): −1.43
- Change from Baseline in AM and PM Combined Nasal Symptom Score: Sneezing, LS Mean (Day 14): −1.51
- Change from Baseline in AM and PM Combined Nasal Symptom Score: Sneezing, Mean (Day 14): −1.50
- Change from Baseline in AM and PM Combined Nasal Symptom Score: Sneezing, Median (Day 14): −1.35
- Percent Change from Baseline in AM and PM Combined Nasal Symptom Score: Congestion, LS Mean (Day 14): −23.87%
- Percent Change from Baseline in AM and PM Combined Nasal Symptom Score: Congestion, Mean (Day 14): −24.78%
- Percent Change from Baseline in AM and PM Combined Nasal Symptom Score: Congestion, Median (Day 14): −20.79%
- Percent Change from Baseline in AM and PM Combined Nasal Symptom Score: Itchy Nose, LS Mean (Day 14): −31.60%
- Percent Change from Baseline in AM and PM Combined Nasal Symptom Score: Itchy Nose, Mean (Day 14): −31.14%
- Percent Change from Baseline in AM and PM Combined Nasal Symptom Score: Itchy Nose, Median (Day 14): −25.00%
- Percent Change from Baseline in AM and PM Combined Nasal Symptom Score: Runny Nose, LS Mean (Day 14): −25.17%
- Percent Change from Baseline in AM and PM Combined Nasal Symptom Score: Runny Nose, Mean (Day 14): −25.22%
- Percent Change from Baseline in AM and PM Combined Nasal Symptom Score: Runny Nose, Median (Day 14): −29.41%
- Percent Change from Baseline in AM and PM Combined Nasal Symptom Score: Sneezing, LS Mean (Day 14): −30.86%
- Percent Change from Baseline in AM and PM Combined Nasal Symptom Score: Sneezing, Mean (Day 14): −29.95%
- Percent Change from Baseline in AM and PM Combined Nasal Symptom Score: Sneezing, Median (Day 14): −27.93%
- Change from Baseline in AM and PM Combined Nasal Symptom Score: Congestion, LS Mean (Overall (Day 2 to Day 14)): −1.08
- Change from Baseline in AM and PM Combined Nasal Symptom Score: Congestion, Mean (Overall (Day 2 to Day 14)): −1.12
- Change from Baseline in AM and PM Combined Nasal Symptom Score: Congestion, Median (Overall (Day 2 to Day 14)): −0.77
- Change from Baseline in AM and PM Combined Nasal Symptom Score: Itchy Nose, LS Mean (Overall (Day 2 to Day 14)): −1.14
- Change from Baseline in AM and PM Combined Nasal Symptom Score: Itchy Nose, Mean (Overall (Day 2 to Day 14)): −1.16
- Change from Baseline in AM and PM Combined Nasal Symptom Score: Itchy Nose, Median (Overall (Day 2 to Day 14)): −0.98
- Change from Baseline in AM and PM Combined Nasal Symptom Score: Runny Nose, LS Mean (Overall (Day 2 to Day 14)): −1.06
- Change from Baseline in AM and PM Combined Nasal Symptom Score: Runny Nose, Mean (Overall (Day 2 to Day 14)): −1.08
- Change from Baseline in AM and PM Combined Nasal Symptom Score: Runny Nose, Median (Overall (Day 2 to Day 14)): −0.67
- Change from Baseline in AM and PM Combined Nasal Symptom Score: Sneezing, LS Mean (Overall (Day 2 to Day 14)): −1.48
- Change from Baseline in AM and PM Combined Nasal Symptom Score: Sneezing, Mean (Overall (Day 2 to Day 14)): −1.49
- Change from Baseline in AM and PM Combined Nasal Symptom Score: Sneezing, Median (Overall (Day 2 to Day 14)): −1.31
- Percent Change from Baseline in AM and PM Combined Nasal Symptom Score: Congestion, LS Mean (Overall (Day 2 to Day 14)): −19.23%
- Percent Change from Baseline in AM and PM Combined Nasal Symptom Score: Congestion, Mean (Overall (Day 2 to Day 14)): −19.82%
- Percent Change from Baseline in AM and PM Combined Nasal Symptom Score: Congestion, Median (Overall (Day 2 to Day 14)): −12.82%
- Percent Change from Baseline in AM and PM Combined Nasal Symptom Score: Itchy Nose, LS Mean (Overall (Day 2 to Day 14)): −25.36%
- Percent Change from Baseline in AM and PM Combined Nasal Symptom Score: Itchy Nose, Mean (Overall (Day 2 to Day 14)): −25.53%
- Percent Change from Baseline in AM and PM Combined Nasal Symptom Score: Itchy Nose, Median (Overall (Day 2 to Day 14)): −19.66%
- Percent Change from Baseline in AM and PM Combined Nasal Symptom Score: Runny Nose, LS Mean (Overall (Day 2 to Day 14)): −20.47%
- Percent Change from Baseline in AM and PM Combined Nasal Symptom Score: Runny Nose, Mean (Overall (Day 2 to Day 14)): −21.06%
- Percent Change from Baseline in AM and PM Combined Nasal Symptom Score: Runny Nose, Median (Overall (Day 2 to Day 14)): −15.44%
- Percent Change from Baseline in AM and PM Combined Nasal Symptom Score: Sneezing, LS Mean (Overall (Day 2 to Day 14)): −34.20%
- Percent Change from Baseline in AM and PM Combined Nasal Symptom Score: Sneezing, Mean (Overall (Day 2 to Day 14)): −33.98%
- Percent Change from Baseline in AM and PM Combined Nasal Symptom Score: Sneezing, Median (Overall (Day 2 to Day 14)): −33.20%
